Source: ChEMBL document CHEMBL1152733, “Specificities of calreticulin transacetylase to acetoxy derivatives of 3-alkyl-4-methylcoumarins: effect on the activation of nitric oxide synthase” (Bioorg Med Chem, 2009)
Active and inactive are the calls of the source.

Key:
Rattus norvegicus [1] = organism: Rattus norvegicus; experiment: Inhibition of rat liver microsomal CRTAase-mediated inhibition of cytosolic glutathione S-transferase activity
Rattus norvegicus [2] = organism: Rattus norvegicus; experiment: Inhibition of rat liver microsomal CRTAase catalyzed activation of NADPH cytochrome C reductase
Platelet = experiment: Increase in NO levels in citreated human platelet rich plasma assessed as enhancement of dichloro fluorescein fluorescence by flow cytometry; type: functional

Measured: Activity

CC(=O)Oc1ccc2c(C)cc(=O)oc2c1OC(C)=O
active: all assays above

CCc1c(C)c2ccc(OC(C)=O)c(OC(C)=O)c2oc1=O
active: all assays above

CCCCCCCCCCc1c(C)c2ccc(OC(C)=O)cc2oc1=O
active: all assays above

CCc1c(C)c2ccc(OC(C)=O)cc2oc1=O
active: all assays above

CCCCCCCCCCc1c(C)c2ccc(OC(C)=O)c(OC(C)=O)c2oc1=O
active: all assays above

CCCCCCc1c(C)c2ccc(OC(C)=O)cc2oc1=O
active: all assays above

CCCCCCc1c(C)c2ccc(OC(C)=O)c(OC(C)=O)c2oc1=O
active: all assays above

CC(=O)Oc1ccc2c(C)cc(=O)oc2c1
active: all assays above
